Literature values, collected in paper PMC11901438, “Synthesis and Evaluation of Boron-Containing Heterocyclic Compounds with Antimicrobial and Anticancer Activities” (Molecules, 2025).
Values after ≈ are worked out from the molar mass of the structure shown.

System: Mycobacterium tuberculosis
Parameters: method as in PMID 33410233
Conditions: earlier work of the same laboratory; cited from earlier work

SMILES	MIC90 (CIM90) anti-Mycobacterium tuberculosis
O=C(Nc1ccc(N2CCCCCC2)c(F)c1)c1ccc2no[n+]([O-])c2c1 [Compound 6]	2.89 µM (≈ 1.07 µg/mL)
O=C(Nc1ccc(N2CCN(c3ccc(F)cc3)CC2)c(F)c1)c1ccc2no[n+]([O-])c2c1 [Compound 3]	3.82 µM (≈ 1.72 µg/mL)
O=C(Nc1ccc(N2CCSCC2)c(F)c1)c1ccc2no[n+]([O-])c2c1 [Compound 4]	0.70 µM (≈ 0.262 µg/mL)
O=C(Nc1ccc(N2CCOCC2)c(F)c1)c1ccc2no[n+]([O-])c2c1 [Compound 5]	5.22 µM (≈ 1.87 µg/mL)
O=C(Nc1ccc(N2CCN(c3ncccn3)CC2)c(F)c1)c1ccc2no[n+]([O-])c2c1 [Compound 2]	2.22 µM (≈ 0.967 µg/mL)
O=C(Nc1ccc(N2CCN(c3ccccn3)CC2)c(F)c1)c1ccc2no[n+]([O-])c2c1 [Compound 1]	0.09 µM (≈ 0.0391 µg/mL)
